The results in this text go back to patent publication US10233173B2, “Substituted 1,2,3-triazoles as NR2B-selective NMDA modulators” (JANSSEN PHARMACEUTICA NV, priority 2016, dated 2019).

Chain of human GluN1/GluN2B NMDA receptors (Q13224 27-1484, other chains not shown): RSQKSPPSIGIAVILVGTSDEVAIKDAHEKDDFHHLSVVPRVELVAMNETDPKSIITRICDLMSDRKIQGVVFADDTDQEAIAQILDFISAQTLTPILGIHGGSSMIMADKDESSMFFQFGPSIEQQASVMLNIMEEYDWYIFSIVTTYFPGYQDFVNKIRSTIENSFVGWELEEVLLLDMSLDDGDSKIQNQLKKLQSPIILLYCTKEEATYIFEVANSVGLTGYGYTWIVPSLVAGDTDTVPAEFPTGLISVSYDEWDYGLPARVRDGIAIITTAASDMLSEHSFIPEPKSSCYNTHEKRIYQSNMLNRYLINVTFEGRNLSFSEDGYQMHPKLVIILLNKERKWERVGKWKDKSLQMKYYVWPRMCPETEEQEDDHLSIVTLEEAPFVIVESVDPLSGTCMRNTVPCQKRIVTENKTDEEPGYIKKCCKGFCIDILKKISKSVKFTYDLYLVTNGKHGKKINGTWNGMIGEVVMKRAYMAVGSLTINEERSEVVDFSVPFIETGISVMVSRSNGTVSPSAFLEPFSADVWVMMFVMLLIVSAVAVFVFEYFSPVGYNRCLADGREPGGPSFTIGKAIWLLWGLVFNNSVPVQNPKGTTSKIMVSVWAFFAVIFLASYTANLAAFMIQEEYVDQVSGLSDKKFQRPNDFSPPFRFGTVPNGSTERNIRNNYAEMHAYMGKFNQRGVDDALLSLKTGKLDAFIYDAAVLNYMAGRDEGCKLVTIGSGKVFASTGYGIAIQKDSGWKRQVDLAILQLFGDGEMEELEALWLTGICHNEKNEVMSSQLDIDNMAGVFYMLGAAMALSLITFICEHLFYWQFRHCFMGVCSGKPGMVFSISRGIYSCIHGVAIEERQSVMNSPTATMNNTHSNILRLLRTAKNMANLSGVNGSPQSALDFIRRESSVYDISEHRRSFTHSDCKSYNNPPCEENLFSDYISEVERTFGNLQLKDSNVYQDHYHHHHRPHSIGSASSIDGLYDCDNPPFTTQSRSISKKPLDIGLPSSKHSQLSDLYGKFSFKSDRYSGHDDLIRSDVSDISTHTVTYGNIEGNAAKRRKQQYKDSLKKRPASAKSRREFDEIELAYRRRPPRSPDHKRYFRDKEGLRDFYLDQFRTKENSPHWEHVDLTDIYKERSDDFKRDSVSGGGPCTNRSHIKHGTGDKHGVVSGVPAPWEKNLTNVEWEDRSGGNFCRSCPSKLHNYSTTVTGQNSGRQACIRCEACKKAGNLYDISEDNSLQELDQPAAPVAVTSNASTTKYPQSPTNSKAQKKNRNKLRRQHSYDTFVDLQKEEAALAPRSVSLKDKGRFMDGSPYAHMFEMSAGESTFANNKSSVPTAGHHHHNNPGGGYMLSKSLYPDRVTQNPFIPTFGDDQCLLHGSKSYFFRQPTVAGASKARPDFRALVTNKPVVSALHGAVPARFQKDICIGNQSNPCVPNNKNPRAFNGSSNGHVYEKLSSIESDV

The assay addresses human GluN1/GluN2B NMDA receptors (Homo sapiens, UniProt Q05586+Q13224). Nature of the assay: Cell-based calcium flux (FLIPR) assay on cloned human NR1/NR2B ion channels expressed in mammalian cells. Particulars: standard assay; glutamate at ~EC80; FLIPR calcium flux. In short, it runs like this:
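Calcium influx followed by FLIPR fluorescence after 5 min compound exposure and a further 5 min co-agonist challenge: 10 μM glycine with glutamate at ~EC80 (standard) or EC40 (HTS).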
In general terms: A change in cytosolic calcium serves as a functional read-out for many receptors and channels.
Usually IC50 stands for the concentration at which inhibition is half-maximal. As for `Fc1ccc(-n2cc(COc3nccc(NC4CC4)n3)nn2)cc1C(F)F` [Example 690, N-Cyclopropyl-2-((1-(3-(difluoromethyl)-4-fluorophenyl)-1H-1,2,3-triazol-4-yl)methoxy)pyrimidin-4-amine], the half-inhibitory concentration (IC50) stood at 0.008 µM.

Consider `CCNc1ccnc(OCc2cn(-c3ccc(F)c(C(F)F)c3)nn2)n1` [Example 691, N-Ethyl-2-((1-(3-(difluoromethyl)-4-fluorophenyl)-1H-1,2,3-triazol-4-yl)methoxy)pyrimidin-4-amine], for which the half-maximal inhibitory concentration (IC50) amounted to 0.006 µM.

Regarding `Cc1nccn1-c1ccnc(OCc2cn(-c3ccc(F)c(C(F)F)c3)nn2)n1` [Example 692, 2-((1-(3-(Difluoromethyl)-4-fluorophenyl)-1H-1,2,3-triazol-4-yl)methoxy)-4-(2-methyl-1H-imidazol-1-yl)pyrimidine], the half-inhibitory concentration (IC50) was 1.58 µM. Next, `CC(F)(F)c1ccnc(OCc2cn(-c3ccc(F)c(C(F)F)c3)nn2)n1` [Example 696, 4(1,1-Difluoroethyl)-2-((1-(3-(difluoromethyl)-4-fluorophenyl)-1H-1,2,3-triazol-4-yl)methoxy)pyrimidine]: 0.958 µM; `Fc1ccc(-n2cc(COc3nccc(-n4cccn4)n3)nn2)cc1C(F)F` [Example 699, 2-((1-(3-(Difluoromethyl)-4-fluorophenyl)-1H-1,2,3-triazol-4-yl)methoxy)-4-(1H-pyrazol-1-yl)pyrimidine]: 0.389 µM; `CC(F)(F)c1cnc(OCc2cn(-c3ccc(F)c(C(F)F)c3)nn2)nc1` [Example 701, 5-(1,1-Difluoroethyl)-2-((1-(3-(difluoromethyl)-4-fluorophenyl)-1H-1,2,3-triazol-4-yl)methoxy)pyrimidine]: 0.958 µM.

Turning to `CCOCc1ccnc(OCc2cn(-c3ccc(F)c(OC(F)F)c3)nn2)n1` [Example 711, 2-((1-(3-(Difluoromethoxy)-4-fluorophenyl)-1H-1,2,3-triazol-4-yl)methoxy)-4-(ethoxymethyl)pyrimidine], the half-maximal inhibitory concentration (IC50) was determined as 0.043 µM. Take `Fc1ccc(-n2cc(COc3nccc(COCC(F)F)n3)nn2)cc1OC(F)F` [Example 716, 4-((2,2-Difluoroethoxy)methyl)-2-((1-(3-(difluoromethoxy)-4-fluorophenyl)-1H-1,2,3-triazol-4-yl)methoxy)pyrimidine]: the half-inhibitory concentration (IC50) amounted to 0.049 µM.
